# Results: US10413505B1, “Pharmaceutical compositions and methods of using the same” (priority 2017, dated 2019)
# Like-named read-outs stand apart in the source and are kept apart here.
# Assays:
# [1] = Example 1 single-dose plasma pharmacokinetics after intranasal administration; type: in vivo, human; conditions: single intranasal 160 mg cocaine HCl; for AUC(0-inf) / AUC(0-t) / Cmax / MRT / Tmax / Vd/F / half-life: human, inhaled or intranasal, 160 mg
# Method: Single-dose plasma and urinary pharmacokinetics of the pharmaceutical composition following intranasal administration was characterized in this study. This was a single-dose study in 30 healthy volunteers. The objective of the study was to examine the systemic pharmacokinetics of the pharmaceutical composition following acute, topical intranasal administration.
# A single dose of a pharmaceutical composition was administered to both nostrils using cottonoid pledgets. […] Each pledget absorbed approximately 1 mL of pharmaceutical composition (i.e., 40 mg cocaine hydrochloride). Two soaked pledgets were placed into each nasal cavity of the subject and against the anterior septum for 20 minutes; thus, a total dose of 160 mg of cocaine hydrochloride was administered.
# Blood samples were collected pre-dose (30 minutes before pledget insertion), and 7.5, 15, 20, 30, 45, 60, 75, 90, and 105 minutes and 2, 3, 4, 6, 8, 10, and 12 hours from the start of application of the pharmaceutical composition.
# The effect of gender on Cmax, Tmax, AUClast, AUCinf, and t1/2 was determined. The effects of age, body weight, and BMI on AUClast were determined.
# [2] = Example 3 urinary pharmacokinetics, normal hepatic function vs hepatic impairment; type: in vivo, human; conditions: Impaired hepatic function, 0-32 h, single intranasal dose
# Method: Urine was collected prior to dosing and from 0-2, 2-4, 4-8, 8-12, 12-24, and 24-32 hours after beginning of dose application. […] Urinary pharmacokinetic parameters included total urinary recovery (μg), urinary recovery as a percentage of dose, and CLr.
compound,measurement,setting,value
"COC(=O)[C@H]1[C@@H](OC(=O)c2ccccc2)C[C@@H]2CC[C@H]1N2C [Cocaine, cocaine, reference compound]",AUC(0-inf),"[1]; both sexes, plasma, healthy subjects, plasma, read-out: AUCinf (Geometric Mean)",0.0503 µg·h/mL
same,AUC(0-inf),"[1]; both sexes, plasma, healthy subjects, plasma, read-out: AUCinf (Mean)",0.0549 µg·h/mL
same,AUC(0-t),"[1]; both sexes, plasma, healthy subjects, plasma, read-out: AUClast (Geometric Mean)",0.0342 µg·h/mL
same,AUC(0-t),"[1]; both sexes, plasma, healthy subjects, plasma, read-out: AUClast (Mean)",0.0384 µg·h/mL
same,Cmax,"[1]; both sexes, plasma, healthy subjects, plasma, read-out: Cmax (Geometric Mean)",0.0328 µg/mL
same,MRT,"[1]; both sexes, plasma, healthy subjects, plasma, read-out: MRT (Geometric Mean)",90 min
same,MRT,"[1]; both sexes, plasma, healthy subjects, plasma, read-out: MRT (Mean)",93.6 min
same,Tmax,"[1]; both sexes, plasma, healthy subjects, plasma, read-out: Tmax (Geometric Mean)",22.4 min
same,Vd/F,"[1]; both sexes, plasma, healthy subjects, plasma, read-out: Vd/F (Geometric Mean)",3680 L
same,Vd/F,"[1]; both sexes, plasma, healthy subjects, plasma, read-out: Vd/F (Mean)",3880 L
same,AUC(0-inf),"[1]; female, plasma, Female healthy subjects, plasma, read-out: AUCinf (Geometric mean)",0.0539 µg·h/mL
same,AUC(0-inf),"[1]; female, plasma, Female healthy subjects, plasma, read-out: AUCinf (Mean)",0.0606 µg·h/mL
same,AUC(0-inf),"[1]; female, plasma, Female healthy subjects, plasma, read-out: AUCinf (Median)",0.0576 µg·h/mL
same,AUC(0-t),"[1]; female, plasma, Female healthy subjects, plasma, read-out: AUClast (Geometric mean)",0.0394 µg·h/mL
same,AUC(0-t),"[1]; female, plasma, Female healthy subjects, plasma, read-out: AUClast (Mean)",0.0444 µg·h/mL
same,AUC(0-t),"[1]; female, plasma, Female healthy subjects, plasma, read-out: AUClast (Median)",0.0324 µg·h/mL
same,Cmax,"[1]; female, plasma, Female healthy subjects, plasma, read-out: Cmax (Geometric mean)",0.0355 µg/mL
same,Cmax,"[1]; female, plasma, Female healthy subjects, plasma, read-out: Cmax (Mean)",0.039 µg/mL
same,Cmax,"[1]; female, plasma, Female healthy subjects, plasma, read-out: Cmax (Median)",0.037 µg/mL
same,Tmax,"[1]; female, plasma, Female healthy subjects, plasma, read-out: Tmax (Geometric mean)",23.1 min
same,Tmax,"[1]; female, plasma, Female healthy subjects, plasma, read-out: Tmax (Mean)",26.9 min
same,Tmax,"[1]; female, plasma, Female healthy subjects, plasma, read-out: Tmax (Median)",20 min
same,half-life,"[1]; female, plasma, Female healthy subjects, plasma, read-out: t1/2 (Geometric mean) (converted)",56.5 min
same,half-life,"[1]; female, plasma, Female healthy subjects, plasma, read-out: t1/2 (Mean) (converted)",60.6 min
same,half-life,"[1]; female, plasma, Female healthy subjects, plasma, read-out: t1/2 (Median) (converted)",60.6 min
same,"fraction of the 160 mg dose absorbed intact during the 20-minute exposure period (rough estimate, CL/F vs intravenous CL)",[1]; healthy subjects,~4%
same,% EXTRAP (Geometric Mean),"[1]; healthy subjects, plasma",17.7%
same,% EXTRAP (Mean),"[1]; healthy subjects, plasma",18.7%
same,CL/F (Mean),"[1]; healthy subjects, plasma","3,096 L/h"
same,Clast (Geometric mean),"[1]; healthy subjects, plasma",0.00705 µg/mL
same,Clast (Mean),"[1]; healthy subjects, plasma",0.00718 µg/mL
same,Tlast (Geometric mean),"[1]; healthy subjects, plasma",2.31 h
same,Tlast (Mean),"[1]; healthy subjects, plasma",2.40 h
same,Tmax (Mean),"[1]; healthy subjects, plasma",26 min
same,t1/2 (Geometric mean),"[1]; healthy subjects, plasma",58.5 min
same,Cmax,"[1]; plasma, healthy subjects, plasma, read-out: Cmax (Mean)",0.037 ± 0.0173 µg/mL
same,Cmax,"[1]; plasma, healthy subjects, plasma, read-out: Cmax (range across subjects)",0.00793 to 0.0703 µg/mL
same,Tmax,"[1]; plasma, healthy subjects, plasma, read-out: Tmax (Mean)",25.8 ± 20.4 min
same,half-life,"[1]; plasma, healthy subjects, plasma, read-out: t1/2 (Mean) (converted)",62.4 ± 21 min
same,AUC(0-inf),"[1]; male, plasma, Male healthy subjects, plasma, read-out: AUCinf (Geometric mean)",0.0457 µg·h/mL
same,AUC(0-inf),"[1]; male, plasma, Male healthy subjects, plasma, read-out: AUCinf (Mean)",0.0472 µg·h/mL
same,AUC(0-inf),"[1]; male, plasma, Male healthy subjects, plasma, read-out: AUCinf (Median)",0.0462 µg·h/mL
same,AUC(0-t),"[1]; male, plasma, Male healthy subjects, plasma, read-out: AUClast (Geometric mean)",0.0291 µg·h/mL
same,AUC(0-t),"[1]; male, plasma, Male healthy subjects, plasma, read-out: AUClast (Mean)",0.0315 µg·h/mL
same,AUC(0-t),"[1]; male, plasma, Male healthy subjects, plasma, read-out: AUClast (Median)",0.0285 µg·h/mL
same,Cmax,"[1]; male, plasma, Male healthy subjects, plasma, read-out: Cmax (Geometric mean)",0.03 µg/mL
same,Cmax,"[1]; male, plasma, Male healthy subjects, plasma, read-out: Cmax (Mean)",0.0346 µg/mL
same,Cmax,"[1]; male, plasma, Male healthy subjects, plasma, read-out: Cmax (Median)",0.0316 µg/mL
same,Tmax,"[1]; male, plasma, Male healthy subjects, plasma, read-out: Tmax (Geometric mean)",21.7 min
same,Tmax,"[1]; male, plasma, Male healthy subjects, plasma, read-out: Tmax (Mean)",25 min
same,Tmax,"[1]; male, plasma, Male healthy subjects, plasma, read-out: Tmax (Median)",20 min
same,half-life,"[1]; male, plasma, Male healthy subjects, plasma, read-out: t1/2 (Geometric mean) (converted)",60.6 min
same,half-life,"[1]; male, plasma, Male healthy subjects, plasma, read-out: t1/2 (Mean) (converted)",63.6 min
same,half-life,"[1]; male, plasma, Male healthy subjects, plasma, read-out: t1/2 (Median) (converted)",58 min
same,"Urine Recovery as % of Dose, Geomean",[2],0.071 % of Dose
same,"Urine Recovery as % of Dose, Mean",[2],0.143 % of Dose
